From patent US4748122A, “2,5-diketo-D-gluconic acid reductase” (Shionogi & Co., Ltd., priority 1983, dated 1988)

Key:
[1] = molecular target: T1, 25DKG-Rase (Corynebacterium sp. SHS752001, UniProt P15339); assay: Inhibition, activation and stabilization of the enzyme; format: biochemical, genus Corynebacterium; conditions: for activation of the enzyme: addition of Mg++ or Mn++; for stabilization of the enzyme: glycerol of a high concentration (30-50%) or sucrose (1M)
From the text: It is stabilized by glycerol of a high concentration (30-50%) or sucrose (1M).

[2] = molecular target: T1, 25DKG-Rase; assay: Action, substrate specificity and Km of the purified 25DKG-Rase (general description); format: biochemical, genus Corynebacterium; conditions: for specificities for substrates (reducing action): in the presence of NADPH
From the text: As shown, NADPH is used as a hydrogen donor in the above reaction. Reduced nicotinamide adenine dinucleotide (NADH) may also be used as the hydrogen donor in the above reaction but the reaction velocity in that case is lowered to one two hundred and fiftieth (1/250) or less of that in the reaction where NADPH is used.
The enzymatic activity is spectrophotometrically measured on the basis of the decrease in absorption at 340 nm which corresponds to the oxidation of NADPH as the result of the enzyme reaction at 30° C. in 0.1M Tris buffer (pH 7) containing 0.1 mM NADPH and 3.3 mM Ca-25DKG. One unit of the enzymatic activity is defined as that oxidizes 1 μmole of NADPH for one minute.

[3] = molecular target: T2, 25DKG-Rase (Corynebacterium sp., UniProt P15339); assay: Spectrophotometric enzymatic activity (decrease in absorption at 340 nm), purified enzyme solution of Example 1; format: biochemical, Corynebacterium sp. No. 20A-77 mutant (FERM-BP 108); conditions: for Activity of the purified enzyme solution (1 ml) / reductive activity (in words): NADPH, 0.1M TB pH 7, 30° C.; for Enzymatic activity: per 1 ml purified enzyme solution
T2 construct: The enzyme is an intracellular enzyme extracted from the cells of the 2KLG producing strain; made in house; host or cells: natural producer Corynebacterium sp; No. 20A-77 mutant FERM-BP 108, enzyme purified from sonicated cells; not recombinant
T2 sequence (P15339 2-277 limits assumed): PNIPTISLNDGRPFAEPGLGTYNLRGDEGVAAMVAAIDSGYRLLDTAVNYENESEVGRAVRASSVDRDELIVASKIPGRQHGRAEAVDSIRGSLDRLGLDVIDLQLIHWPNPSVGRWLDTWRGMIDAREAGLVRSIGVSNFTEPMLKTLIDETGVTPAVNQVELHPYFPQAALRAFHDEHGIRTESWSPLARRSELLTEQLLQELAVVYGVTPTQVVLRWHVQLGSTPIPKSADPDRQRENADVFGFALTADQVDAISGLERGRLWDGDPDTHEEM

[4] = tested on: 25DKG-Rase derived from Strain K-106; assay: Substrate specificity by product formation, enzyme from K-106; format: biochemical, Corynebacterium sp. No. K-106 (ATCC 31,088)
Method: (§1) The purified enzyme solution (10 μl) obtained above (3) was mixed with 25 μmoles of a substrate (Ca-25DKG or 5KF) and 3.0 ml of 0.01M TB (pH 7) containing 15 μmoles of NADPH and the mixture was allowed to react at 30° C. for 60 minutes. After the reaction, the reaction mixture was analyzed by paper chromatography (developing solvent; phenol:formic acid:water=75:4:25, chromogenic agent; AHF solution, prepared by dissolving 0.93 g of anilin and 1.66 g of phthalic acid in 100 ml of water-saturated n-butanol and heating at 105° C. for 2 minutes) and by gas chromatography (column; SE-52, carrier gas: Helium, sample; trimethylsilylated derivative). […] In Table 1, the results of quantitative determination of the products by gas chromatography are shown.
(§2) The measurements of the physico-chemical properties were conducted in a manner as described in Example 1-(4) (5).

[5] = tested on: 25DKG-Rase derived from Strain T-13; assay: Substrate specificity by product formation, enzyme from T-13; format: biochemical, Corynebacterium sp. No. T-13 (ATCC 31,089)
Method: as §1, §2

[6] = molecular target: T1, 25DKG-Rase; assay: Action, substrate specificity and Km of the purified 25DKG-Rase (general description); format: biochemical, genus Corynebacterium; conditions: in the presence of NADP or NAD
[7] = molecular target: T2, 25DKG-Rase; format: biochemical, Corynebacterium sp. No. 20A-77 mutant (FERM-BP 108); conditions: 60 minutes; for product formed (paper and gas chromatography): NADPH, 0.01M TB pH 7, 30° C.
[8] = tested on: 25DKG-Rase derived from Strain K-106; assay: Enzymatic activity of 25DKG-Rase obtained from K-106 (Example 2); format: biochemical, Corynebacterium sp. No. K-106 (ATCC 31,088)
Method: (§3) Two point nine (2.9) ml of 0.1M TB (pH 7) containing 0.3 μmoles of NADPH was placed in a quartz cubette having 1 cm optical length difference and added 1-5 μl of the enzyme solution obtained above (3) thereto. Then, to the mixture, each 0.1 ml of the various substrate solutions (0.1M) were added while being kept at 30° C. Reactivities of the enzyme on the respective substrates were determined, by means of successive measurement of the decrease in absorption at 340 nm, on the basis of the decrease for 1 minute.
as §2
(§4) Enzymatic activities of 25DKG-Rases obtained from K-106 and T-13 were measured at varying pH from 4 to 9 (substrate: Ca-25DKG, reaction temperature: 30° C.).
(§5) The enzymatic activities of 25DKG-Rases obtained from K-106 and T-13 were measured at varying temperature (pH 7.0, substrate: Ca-25DKG).

[9] = tested on: 25DKG-Rase derived from Strain T-13; assay: Enzymatic activity of 25DKG-Rase obtained from T-13 (Example 2); format: biochemical, Corynebacterium sp. No. T-13 (ATCC 31,089)
Method: as §3, §2, §4, §5

T1 sequence (P15339 whole entry): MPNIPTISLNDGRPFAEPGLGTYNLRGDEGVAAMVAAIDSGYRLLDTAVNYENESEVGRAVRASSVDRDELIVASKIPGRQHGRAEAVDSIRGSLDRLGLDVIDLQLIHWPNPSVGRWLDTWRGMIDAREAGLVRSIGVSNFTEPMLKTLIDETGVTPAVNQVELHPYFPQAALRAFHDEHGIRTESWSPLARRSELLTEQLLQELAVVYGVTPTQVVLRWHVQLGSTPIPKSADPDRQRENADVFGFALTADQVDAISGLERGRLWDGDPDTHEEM

Row | SMILES | Activity of the purified enzyme solution (1 ml) [3] [units] | reductive activity (in words) [3] | product formed (substrate specificity) [4] | product formed (substrate specificity) [5] | specificities for substrates (reducing action) [2] | also measured
1 | [Mg+2] [Mg^++] | – | – | – | – | – | activation of the enzyme [1]: No remarkable increase in activation
2 | NC(=O)C1=CN([C@@H]2O[C@H](COP(=O)(O)OP(=O)(O)OC[C@H]3O[C@@H](n4cnc5c(N)ncnc54)[C@H](O)[C@@H]3O)[C@@H](O)[C@H]2O)C=CC1 [NADH, Reduced nicotinamide adenine dinucleotide] | – | – | – | – | – | reaction velocity with NADH as hydrogen donor relative to NADPH ([2]; NADH in place of NADPH): 1/250
3 | OC[C@H]1O[C@@](CO)(O[C@H]2O[C@H](CO)[C@@H](O)[C@H](O)[C@H]2O)[C@@H](O)[C@@H]1O [sucrose] | – | – | – | – | – | stabilization of the enzyme [1]: stabilized
4 | [Mn+2] [Mn^++] | – | – | – | – | – | activation of the enzyme [1]: No remarkable increase in activation
5 | O=C(CO)[C@@H](O)[C@H](O)[C@H](O)CO [D-fructose] | 0 | does not show any reductive activity | None was produced | None was produced | does not show any reducing action | –
6 | O=C(O)C(=O)[C@@H](O)[C@H](O)[C@@H](O)CO [Na-2KLG] | 0 | – | – | – | – | –
7 | O=C(CO)[C@@H](O)[C@H](O)[C@@H](O)CO [L-sorbose] | 0 | does not show any reductive activity | None was produced | None was produced | does not show any reducing action | production of 25DKG or 5KF from 2KLG or L-sorbose (reverse reaction) [6]: No or not substantial production
8 | O=C(O)C(=O)[C@@H](O)[C@H](O)[C@@H](O)CO [2KLG, 2-keto-L-gulonic acid] | – | does not show any reductive activity | None was produced | None was produced | does not show any reducing action | production of 25DKG or 5KF from 2KLG or L-sorbose (reverse reaction) [6]: No or not substantial production
9 | OCC(O)CO [glycerol] | – | – | – | – | – | stabilization of the enzyme [1]: stabilized
10 | O=C(CO)[C@@H](O)[C@H](O)C(=O)CO [5KF, 5-keto-D-fructose] | 94 | shows a high activity | only L-sorbose | only L-sorbose | shows specificities | Enzymatic activity ([3]; pH 4.0, 3,3-dimethylglutaric acid buffer): 2 unit/ml; Enzymatic activity ([3]; pH 5.0, 3,3-dimethylglutaric acid buffer): 33 unit/ml; Enzymatic activity ([3]; pH 6.0, Good (PIPES) buffer): 96 unit/ml; Enzymatic activity ([3]; pH 6.5, Good (PIPES) buffer): 95 unit/ml; Enzymatic activity ([3]; pH 7.0, Good (PIPES) buffer): 92 unit/ml; Enzymatic activity ([3]; pH 7.0, Tris buffer): 93 unit/ml; Enzymatic activity ([3]; pH 7.5, Tris buffer): 68 unit/ml; Enzymatic activity ([3]; pH 8.0, Tris buffer): 48 unit/ml; Enzymatic activity ([3]; pH 8.5, Tris buffer): 27 unit/ml; Enzymatic activity ([3]; pH 9.0, Tris buffer): 13 unit/ml; Concentration of the product ([7]; 10 μl enzyme solution, 25 μmoles substrate, 15 μmoles NADPH, 30° C., gas chromatography): 795 µg/mL; product formed (paper and gas chromatography) [7]: only L-sorbose is produced; Enzymatic activity per protein ([8]; enzyme from Strain K-106, NADPH): 152 units/mg protein; Enzymatic activity ([8]; enzyme from Strain K-106, purified enzyme solution, NADPH): 38.3 units/ml; Enzymatic activity per protein ([9]; enzyme from Strain T-13, NADPH): 229 units/mg protein; Enzymatic activity ([9]; enzyme from Strain T-13, purified enzyme solution, NADPH): 39 units/ml
11 | O=C(CO)[C@@H](O)[C@H](O)[C@@H](O)C(=O)O [K-5-keto-gluconate] | 0 | – | – | – | – | –
12 | O=C(O)C(=O)O [oxalate] | – | – | – | – | – | inhibition of the enzyme [1]: inhibited
13 | O=CC(O)CO (stereo not shown) [glyceroaldehyde] | – | – | – | – | – | inhibition of the enzyme [1]: scarcely inhibited
14 | O=C(O)C(=O)[C@@H](O)[C@H](O)[C@H](O)CO [2-keto-D-gluconic acid] | – | does not show any reductive activity | None was produced | None was produced | does not show any reducing action | –
15 | O=C(O)C(=O)[C@@H](O)[C@H](O)C(=O)CO [25DKG, 2,5-diketo-D-gluconic acid] | – | shows a high activity | – | – | shows specificities | product formed (paper and gas chromatography) [7]: only 2KLG is produced; Km ([8]; purified enzyme solution of K-106): 1700 ± 1000 µM; Km ([9]; purified enzyme solution of T-13): 2600 ± 1000 µM; 25DKG of the substrate reduced to 2KLG ([2]; 30° C. for 60-120 minutes): ≥ 90%
16 | O=C(CO)[C@@H](O)[C@H](O)[C@@H](O)C(=O)O [5-keto-D-gluconic acid] | – | does not show any reductive activity | None was produced | None was produced | does not reduce | –
17 | O=C(O)C(=O)[C@@H](O)[C@H](O)[C@H](O)CO [Ca-2-keto-D-gluconate] | 0 | – | – | – | – | –
